{
  "source": "ChEMBL document CHEMBL1201862",
  "about": "“PubChem BioAssay data set” (2004)",
  "key": {"[1]": {"target": "T1, Sentrin-specific protease 8 (Homo sapiens, UniProt Q96LD8)", "T1 sequence (Q96LD8 whole entry)": "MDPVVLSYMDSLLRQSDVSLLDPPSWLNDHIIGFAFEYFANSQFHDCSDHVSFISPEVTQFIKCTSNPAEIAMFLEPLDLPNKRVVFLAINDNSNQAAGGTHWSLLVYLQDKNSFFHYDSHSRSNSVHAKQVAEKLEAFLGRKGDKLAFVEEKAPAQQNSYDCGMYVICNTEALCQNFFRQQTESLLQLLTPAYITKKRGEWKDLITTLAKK", "assay_type": "functional"}, "[2]": {"target": "T2, Apoptotic protease-activating factor 1 (Homo sapiens, UniProt O14727)", "T2 sequence (O14727 whole entry)": "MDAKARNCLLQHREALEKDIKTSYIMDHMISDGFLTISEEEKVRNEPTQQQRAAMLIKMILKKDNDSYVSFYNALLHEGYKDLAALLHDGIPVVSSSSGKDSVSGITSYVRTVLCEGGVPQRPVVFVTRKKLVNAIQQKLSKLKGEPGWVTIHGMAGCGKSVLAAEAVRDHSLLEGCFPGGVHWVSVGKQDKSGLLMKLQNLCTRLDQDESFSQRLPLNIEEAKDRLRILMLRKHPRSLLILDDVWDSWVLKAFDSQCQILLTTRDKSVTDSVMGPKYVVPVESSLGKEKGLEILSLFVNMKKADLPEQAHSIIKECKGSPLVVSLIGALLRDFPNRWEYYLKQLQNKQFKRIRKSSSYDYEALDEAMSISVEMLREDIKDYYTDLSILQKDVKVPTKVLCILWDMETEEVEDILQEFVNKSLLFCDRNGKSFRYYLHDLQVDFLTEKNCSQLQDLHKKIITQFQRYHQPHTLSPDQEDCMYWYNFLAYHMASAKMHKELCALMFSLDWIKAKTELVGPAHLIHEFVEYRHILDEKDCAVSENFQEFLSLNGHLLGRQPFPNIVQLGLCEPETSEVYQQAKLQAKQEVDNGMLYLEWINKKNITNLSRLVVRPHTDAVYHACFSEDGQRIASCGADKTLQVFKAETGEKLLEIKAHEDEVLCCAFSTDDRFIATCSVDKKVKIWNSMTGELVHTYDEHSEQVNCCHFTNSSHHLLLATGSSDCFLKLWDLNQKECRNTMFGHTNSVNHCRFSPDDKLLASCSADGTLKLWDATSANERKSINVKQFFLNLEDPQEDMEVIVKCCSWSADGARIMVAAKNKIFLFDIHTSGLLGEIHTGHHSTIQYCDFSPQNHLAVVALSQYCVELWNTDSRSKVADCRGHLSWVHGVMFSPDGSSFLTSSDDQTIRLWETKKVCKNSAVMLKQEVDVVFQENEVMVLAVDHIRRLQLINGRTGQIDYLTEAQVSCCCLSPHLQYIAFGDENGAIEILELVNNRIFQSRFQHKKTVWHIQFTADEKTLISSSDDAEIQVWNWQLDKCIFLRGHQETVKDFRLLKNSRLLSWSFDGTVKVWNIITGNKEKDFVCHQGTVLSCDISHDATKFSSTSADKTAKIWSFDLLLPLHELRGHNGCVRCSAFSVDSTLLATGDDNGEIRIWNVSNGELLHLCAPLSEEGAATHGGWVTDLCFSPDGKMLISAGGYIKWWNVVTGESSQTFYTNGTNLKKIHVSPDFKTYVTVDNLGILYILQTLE", "assay": "SAR analysis of small molecule inhibitors of Apaf-1 in a Fluorescent assay.", "assay_type": "functional", "settings": "read-out: IC50_Mean"}, "[3]": {"target": "T3, RNA-binding protein pos-1 (Caenorhabditis elegans, UniProt G5EF15)", "T3 sequence (G5EF15 whole entry)": "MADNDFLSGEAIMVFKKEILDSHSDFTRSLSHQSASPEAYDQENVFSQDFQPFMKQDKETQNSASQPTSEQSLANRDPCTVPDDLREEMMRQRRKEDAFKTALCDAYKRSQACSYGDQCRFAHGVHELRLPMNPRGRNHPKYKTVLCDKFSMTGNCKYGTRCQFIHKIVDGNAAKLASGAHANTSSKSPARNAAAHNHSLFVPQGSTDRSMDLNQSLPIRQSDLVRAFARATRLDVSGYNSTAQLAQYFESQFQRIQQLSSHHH", "assay": "disruptors of C. elegans POS-1 RNA interaction – biochemical, fluorescence polarization, dose response (AID 1964);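 also: purified POS-1 fused to maltose binding protein made in E. coli; potency of compounds blocking POS-1 binding to fluorescent RNA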"}, "Streptokinase A": {"target": "T4, Streptokinase A (Streptococcus pyogenes serotype M1, UniProt P10520)", "T4 sequence (P10520 whole entry)": "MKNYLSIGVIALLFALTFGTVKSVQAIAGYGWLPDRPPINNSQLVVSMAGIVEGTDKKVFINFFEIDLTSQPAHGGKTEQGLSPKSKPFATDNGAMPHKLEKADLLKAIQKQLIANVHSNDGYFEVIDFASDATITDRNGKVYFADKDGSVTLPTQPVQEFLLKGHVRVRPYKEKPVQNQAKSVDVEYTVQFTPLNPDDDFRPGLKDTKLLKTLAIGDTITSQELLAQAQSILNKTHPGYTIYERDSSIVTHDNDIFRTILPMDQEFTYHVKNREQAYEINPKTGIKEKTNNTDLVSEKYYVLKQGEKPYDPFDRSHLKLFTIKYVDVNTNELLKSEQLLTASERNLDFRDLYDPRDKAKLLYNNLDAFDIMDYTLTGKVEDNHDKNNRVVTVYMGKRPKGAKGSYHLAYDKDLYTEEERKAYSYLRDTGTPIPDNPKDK", "assay": "viability-normalized secreted streptokinase activity reduction – plasminogen activation absorbance, OD405, dose response (AID 1914)", "assay_type": "functional, Streptococcus pyogenes M1 GAS"}, "[4]": {"assay": "MIN6 cell viability loss – mouse insulinoma, cytotoxicity control, dose response (AID 2122);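 also: confirmatory high-throughput counterscreen run to flag cytotoxic compounds; mouse MIN-6 beta cells carrying an insulin promoter eGFP reporter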", "assay_type": "functional"}, "Paired box protein Pax-8": {"target": "Paired box protein Pax-8 (Homo sapiens, UniProt Q06710)", "sequence (Q06710 whole entry)": "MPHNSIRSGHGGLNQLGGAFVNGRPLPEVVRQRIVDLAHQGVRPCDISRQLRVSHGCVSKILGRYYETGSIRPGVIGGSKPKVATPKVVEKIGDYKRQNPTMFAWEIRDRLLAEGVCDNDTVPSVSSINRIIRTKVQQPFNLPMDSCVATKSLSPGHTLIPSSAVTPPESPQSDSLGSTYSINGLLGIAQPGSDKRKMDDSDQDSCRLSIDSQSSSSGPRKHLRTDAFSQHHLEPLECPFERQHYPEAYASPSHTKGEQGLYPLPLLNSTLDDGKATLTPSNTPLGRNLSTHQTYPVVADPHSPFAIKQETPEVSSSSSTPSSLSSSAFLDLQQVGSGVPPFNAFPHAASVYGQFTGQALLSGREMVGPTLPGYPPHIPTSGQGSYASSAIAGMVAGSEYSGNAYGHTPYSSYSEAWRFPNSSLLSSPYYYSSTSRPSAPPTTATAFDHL", "assay": "PAX8 transcriptional activity inhibition in RMG-I – RMG-I cells, luciferase, cherry-pick, dose response (AID 687027);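 also: luciferase reporter driven by Pax8 target thyroperoxidase promoter measured by SteadyGlo luminescence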", "assay_type": "functional, cell-based"}, "[5]": {"assay": "non-specific 3'UTR reporter inhibition in Clone20-Shn3RL – cell-based, Renilla luciferase, cherry-picked, counter-screen for Shn3 inhibitor project, dose response (AID 624133)", "assay_type": "functional"}, "[6]": {"target": "Delta-type opioid receptor (Homo sapiens, UniProt P41143)", "sequence (P41143 whole entry)": "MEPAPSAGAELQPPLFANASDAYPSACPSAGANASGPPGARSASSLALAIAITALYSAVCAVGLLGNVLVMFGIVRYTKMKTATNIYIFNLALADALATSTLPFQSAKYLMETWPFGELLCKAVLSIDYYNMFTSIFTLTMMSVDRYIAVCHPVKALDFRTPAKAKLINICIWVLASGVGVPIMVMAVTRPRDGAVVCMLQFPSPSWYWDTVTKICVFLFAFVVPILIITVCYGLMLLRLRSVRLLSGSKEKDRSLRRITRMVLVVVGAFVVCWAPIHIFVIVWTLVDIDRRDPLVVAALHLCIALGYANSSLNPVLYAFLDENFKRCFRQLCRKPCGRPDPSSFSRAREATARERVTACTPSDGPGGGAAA", "assay": "HTS Image-Based Screen for Antagonists of the DOR Receptor. [Related pubchem assays (depositor defined):AID1777, AID1785, AID1786, AID2133]", "assay_type": "functional"}, "SUMO-activating enzyme": {"target": "SUMO-activating enzyme (Homo sapiens, UniProt Q9UBT2)", "sequence (Q9UBE0 whole entry)": "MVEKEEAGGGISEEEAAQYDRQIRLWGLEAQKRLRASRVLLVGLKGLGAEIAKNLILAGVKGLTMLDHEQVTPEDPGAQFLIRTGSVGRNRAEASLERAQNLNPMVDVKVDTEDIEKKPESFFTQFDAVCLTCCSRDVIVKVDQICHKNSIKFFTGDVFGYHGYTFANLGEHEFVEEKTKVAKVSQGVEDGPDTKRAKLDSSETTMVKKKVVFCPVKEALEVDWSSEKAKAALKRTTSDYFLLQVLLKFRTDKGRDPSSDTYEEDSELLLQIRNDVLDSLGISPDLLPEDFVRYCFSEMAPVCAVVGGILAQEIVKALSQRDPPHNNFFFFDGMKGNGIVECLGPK", "sequence (Q9UBT2 whole entry)": "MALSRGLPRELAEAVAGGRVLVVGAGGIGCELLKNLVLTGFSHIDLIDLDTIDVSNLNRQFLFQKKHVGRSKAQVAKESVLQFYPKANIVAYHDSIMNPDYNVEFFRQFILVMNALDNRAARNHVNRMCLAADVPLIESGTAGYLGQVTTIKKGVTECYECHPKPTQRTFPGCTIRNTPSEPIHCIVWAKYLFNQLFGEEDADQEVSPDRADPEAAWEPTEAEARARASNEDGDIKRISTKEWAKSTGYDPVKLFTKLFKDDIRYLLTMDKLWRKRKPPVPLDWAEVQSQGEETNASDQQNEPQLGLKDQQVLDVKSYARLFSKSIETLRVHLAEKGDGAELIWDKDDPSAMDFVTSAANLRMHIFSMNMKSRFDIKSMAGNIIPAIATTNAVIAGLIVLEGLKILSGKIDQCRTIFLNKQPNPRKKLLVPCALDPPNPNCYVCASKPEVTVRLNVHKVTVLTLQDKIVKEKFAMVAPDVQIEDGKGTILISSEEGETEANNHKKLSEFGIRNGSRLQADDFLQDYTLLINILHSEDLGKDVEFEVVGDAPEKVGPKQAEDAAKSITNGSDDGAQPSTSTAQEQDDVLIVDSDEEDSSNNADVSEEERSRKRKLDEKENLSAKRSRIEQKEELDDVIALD", "assay": "blockers of UBC9-mediated SUMO conjugation – biochemical, AlphaScreen, SUMOylation inhibitor project, confirmation (AID 2018)", "assay_type": "functional"}, "[7]": {"target": "1-phosphatidylinositol 4,5-bisphosphate phosphodiesterase gamma-1 (Homo sapiens, UniProt P19174)", "sequence (P19174 whole entry)": "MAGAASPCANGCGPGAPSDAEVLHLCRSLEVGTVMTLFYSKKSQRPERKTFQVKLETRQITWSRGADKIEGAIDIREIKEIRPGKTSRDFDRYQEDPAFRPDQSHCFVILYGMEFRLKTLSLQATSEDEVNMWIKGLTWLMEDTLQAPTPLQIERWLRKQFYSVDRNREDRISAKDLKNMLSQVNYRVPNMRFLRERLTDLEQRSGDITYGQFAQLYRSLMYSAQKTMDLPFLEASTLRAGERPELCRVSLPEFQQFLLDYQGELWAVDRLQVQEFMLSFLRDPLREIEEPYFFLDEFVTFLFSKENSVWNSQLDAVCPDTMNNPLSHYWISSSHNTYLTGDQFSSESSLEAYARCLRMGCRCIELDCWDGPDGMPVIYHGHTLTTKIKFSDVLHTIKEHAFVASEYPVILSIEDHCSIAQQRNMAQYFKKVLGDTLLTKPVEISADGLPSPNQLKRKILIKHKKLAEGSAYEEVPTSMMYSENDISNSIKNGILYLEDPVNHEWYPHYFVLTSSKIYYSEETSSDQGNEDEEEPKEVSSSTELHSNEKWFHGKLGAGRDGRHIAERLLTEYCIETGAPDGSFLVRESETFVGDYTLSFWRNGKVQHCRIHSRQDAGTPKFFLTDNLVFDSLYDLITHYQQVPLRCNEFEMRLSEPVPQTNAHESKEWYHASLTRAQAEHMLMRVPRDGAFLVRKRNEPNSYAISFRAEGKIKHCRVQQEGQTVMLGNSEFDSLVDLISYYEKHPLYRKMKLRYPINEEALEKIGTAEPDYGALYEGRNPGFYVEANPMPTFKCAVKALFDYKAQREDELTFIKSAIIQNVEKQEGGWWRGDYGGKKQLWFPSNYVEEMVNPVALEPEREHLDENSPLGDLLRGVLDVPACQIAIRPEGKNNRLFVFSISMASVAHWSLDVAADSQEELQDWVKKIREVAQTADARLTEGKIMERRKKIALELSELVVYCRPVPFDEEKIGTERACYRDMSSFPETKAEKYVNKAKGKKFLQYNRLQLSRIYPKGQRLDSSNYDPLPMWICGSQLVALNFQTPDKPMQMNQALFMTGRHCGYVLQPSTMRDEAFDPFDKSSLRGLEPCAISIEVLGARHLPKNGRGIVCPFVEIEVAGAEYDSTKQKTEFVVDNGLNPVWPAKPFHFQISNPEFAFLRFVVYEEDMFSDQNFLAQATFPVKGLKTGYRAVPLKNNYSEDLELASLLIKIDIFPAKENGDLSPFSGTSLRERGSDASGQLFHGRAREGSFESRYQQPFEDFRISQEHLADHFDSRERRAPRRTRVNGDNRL", "assay": "Counterscreen for inhibitors of phospholipase C isozymes (PLC-B3): Fluorescence-based biochemical high throughput dose response assay to identify inhibitors of phospholipase C isozymes (PLC-gamma1)."}, "[8]": {"target": "Protein-arginine deiminase type-4 (Homo sapiens, UniProt Q9UM07)", "sequence (Q9UM07 whole entry)": "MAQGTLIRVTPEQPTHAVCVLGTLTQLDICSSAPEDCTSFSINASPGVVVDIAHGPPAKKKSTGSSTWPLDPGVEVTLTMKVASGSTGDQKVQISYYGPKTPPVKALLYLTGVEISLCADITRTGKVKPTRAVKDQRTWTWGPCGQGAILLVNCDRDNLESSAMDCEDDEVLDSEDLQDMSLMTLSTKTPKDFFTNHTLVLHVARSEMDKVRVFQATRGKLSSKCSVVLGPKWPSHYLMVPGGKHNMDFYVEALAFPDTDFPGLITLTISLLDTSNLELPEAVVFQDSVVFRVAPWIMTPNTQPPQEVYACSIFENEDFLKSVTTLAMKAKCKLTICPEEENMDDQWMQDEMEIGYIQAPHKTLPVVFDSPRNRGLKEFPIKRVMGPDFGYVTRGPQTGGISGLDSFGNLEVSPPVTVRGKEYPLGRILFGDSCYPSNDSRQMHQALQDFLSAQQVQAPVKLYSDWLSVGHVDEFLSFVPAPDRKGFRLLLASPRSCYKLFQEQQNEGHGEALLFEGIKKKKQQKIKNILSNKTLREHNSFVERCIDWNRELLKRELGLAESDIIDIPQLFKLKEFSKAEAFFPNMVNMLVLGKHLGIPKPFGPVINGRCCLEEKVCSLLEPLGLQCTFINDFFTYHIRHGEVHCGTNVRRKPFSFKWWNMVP", "assay": "IC50 against protein arginine deiminase 4 – biochemical, fluorescence readout, dose response (AID 492970)"}, "[9]": {"assay": "off-target signal loss in HeLa-CEM21 co-culture – HeLa F-luc CTL cells, cherry-picked, counter-screen for HIV-1 Env fusion inhibitor project, dose response (AID 652040);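 also: potency for signal decrease marking cytotoxic or nonspecific inhibition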", "assay_type": "functional, cell-based"}, "[10]": {"target": "Protein-tyrosine kinase 2-beta (Homo sapiens, UniProt Q14289)", "sequence (Q14289 whole entry)": "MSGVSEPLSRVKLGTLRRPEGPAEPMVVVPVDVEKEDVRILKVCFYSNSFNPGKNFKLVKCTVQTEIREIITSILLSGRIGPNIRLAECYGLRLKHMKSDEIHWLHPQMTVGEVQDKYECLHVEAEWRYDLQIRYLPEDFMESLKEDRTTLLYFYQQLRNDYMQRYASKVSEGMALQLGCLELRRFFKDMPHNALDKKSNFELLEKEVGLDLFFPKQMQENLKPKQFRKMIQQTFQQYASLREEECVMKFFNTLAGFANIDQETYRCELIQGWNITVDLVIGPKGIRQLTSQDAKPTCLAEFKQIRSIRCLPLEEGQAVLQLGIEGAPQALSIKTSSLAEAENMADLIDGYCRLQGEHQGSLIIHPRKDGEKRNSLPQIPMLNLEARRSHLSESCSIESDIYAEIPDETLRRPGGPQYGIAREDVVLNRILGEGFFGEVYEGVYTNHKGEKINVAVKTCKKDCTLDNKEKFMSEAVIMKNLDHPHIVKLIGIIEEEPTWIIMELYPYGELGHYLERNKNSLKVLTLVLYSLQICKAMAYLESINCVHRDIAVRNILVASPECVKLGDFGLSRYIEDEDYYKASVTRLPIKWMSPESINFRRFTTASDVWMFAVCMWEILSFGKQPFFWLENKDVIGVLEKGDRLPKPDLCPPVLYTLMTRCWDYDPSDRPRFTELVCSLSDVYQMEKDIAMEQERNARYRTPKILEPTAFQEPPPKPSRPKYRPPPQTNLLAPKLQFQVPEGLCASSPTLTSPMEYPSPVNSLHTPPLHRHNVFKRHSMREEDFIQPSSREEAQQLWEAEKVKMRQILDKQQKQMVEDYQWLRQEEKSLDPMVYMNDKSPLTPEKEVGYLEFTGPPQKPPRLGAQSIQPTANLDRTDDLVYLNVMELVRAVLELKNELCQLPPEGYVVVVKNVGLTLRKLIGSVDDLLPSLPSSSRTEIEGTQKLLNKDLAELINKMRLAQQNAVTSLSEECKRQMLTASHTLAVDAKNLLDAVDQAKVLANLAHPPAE"}},
  "note": "Calls of active or inactive are those of the source.",
  "data": [
    {"compound": "O=C1c2cc(F)ccc2-n2c1nc1ccccc1c2=O", "values": [
      {"measurement": "IC50", "setting": "[1]", "result": "0.962 µM (active)"},
      {"measurement": "IC50", "setting": "[2]", "result": "67.7 µM (active)"},
      {"measurement": "EC50", "setting": "[3]", "result": "> 300 µM (not active)"}
    ]},
    {"compound": "CCOC(=O)C1=C(c2ccc(OC)cc2)C(=O)c2ccccc2C1=O", "values": [
      {"measurement": "EC50", "setting": "Streptokinase A", "result": "> 150 µM (not active)"}
    ]},
    {"compound": "O=C1C=C(N(CCO)Cc2ccccc2)c2ccccc2C1=O", "values": [
      {"measurement": "IC50", "setting": "[4]", "result": "3.71 µM (active)"}
    ]},
    {"compound": "CCC(=O)OCCNc1cc(Sc2nccn2C)c2nonc2c1[N+](=O)[O-]", "values": [
      {"measurement": "AC50", "setting": "Paired box protein Pax-8", "result": "7.53 µM (active)"},
      {"measurement": "AC50", "setting": "[5]", "result": "4.16 µM (active)"},
      {"measurement": "IC50", "setting": "[6]", "result": "29.7 µM (inactive)"}
    ]},
    {"compound": "CCCCn1c(NC(=O)c2ccccc2Cl)c(C#N)c2nc3ccccc3nc21", "values": [
      {"measurement": "IC50", "setting": "SUMO-activating enzyme", "result": "0.89 µM (active)"}
    ]},
    {"compound": "O=C1C(=O)c2ccccc2-c2ccccc21", "note": "[9,10-PHENANTHRENEQUINONE]", "values": [
      {"measurement": "IC50", "setting": "[7]", "result": "6.37 µM (active)"},
      {"measurement": "IC50", "setting": "[8]", "result": "16 µM (inactive)"},
      {"measurement": "AC50", "setting": "[9]", "result": "3.04 µM (active)"},
      {"measurement": "IC50", "setting": "[10]", "result": "> 69.5 µM (not active)"}
    ]}
  ]
}
